According to ChEMBL document CHEMBL4020733, “Approaches towards the development of chimeric DPP4/ACE inhibitors for treating metabolic syndrome” (Bioorg Med Chem Lett, 2017):

Legend:
Liver [1] = test: Stability in human liver microsomes; assay type: ADME, microsome
Dipeptidyl peptidase 4 [2] = biological target: Dipeptidyl peptidase 4 (Rattus norvegicus, UniProt P14740); test: Inhibition of Wistar rat plasma DPP4
Dipeptidyl peptidase 4 [3] = biological target: Dipeptidyl peptidase 4 (Mus musculus, UniProt P28843); test: Inhibition of ob/ob mouse plasma DPP4
Dipeptidyl peptidase 4 [4] = biological target: Dipeptidyl peptidase 4 (Homo sapiens, UniProt P27487); test: Inhibition of human plasma DPP4
[5] = biological target: T1, Angiotensin-converting enzyme (Mus musculus, UniProt P09470); test: Inhibition of ob/ob mouse plasma ACE
T1 sequence (P09470 whole entry): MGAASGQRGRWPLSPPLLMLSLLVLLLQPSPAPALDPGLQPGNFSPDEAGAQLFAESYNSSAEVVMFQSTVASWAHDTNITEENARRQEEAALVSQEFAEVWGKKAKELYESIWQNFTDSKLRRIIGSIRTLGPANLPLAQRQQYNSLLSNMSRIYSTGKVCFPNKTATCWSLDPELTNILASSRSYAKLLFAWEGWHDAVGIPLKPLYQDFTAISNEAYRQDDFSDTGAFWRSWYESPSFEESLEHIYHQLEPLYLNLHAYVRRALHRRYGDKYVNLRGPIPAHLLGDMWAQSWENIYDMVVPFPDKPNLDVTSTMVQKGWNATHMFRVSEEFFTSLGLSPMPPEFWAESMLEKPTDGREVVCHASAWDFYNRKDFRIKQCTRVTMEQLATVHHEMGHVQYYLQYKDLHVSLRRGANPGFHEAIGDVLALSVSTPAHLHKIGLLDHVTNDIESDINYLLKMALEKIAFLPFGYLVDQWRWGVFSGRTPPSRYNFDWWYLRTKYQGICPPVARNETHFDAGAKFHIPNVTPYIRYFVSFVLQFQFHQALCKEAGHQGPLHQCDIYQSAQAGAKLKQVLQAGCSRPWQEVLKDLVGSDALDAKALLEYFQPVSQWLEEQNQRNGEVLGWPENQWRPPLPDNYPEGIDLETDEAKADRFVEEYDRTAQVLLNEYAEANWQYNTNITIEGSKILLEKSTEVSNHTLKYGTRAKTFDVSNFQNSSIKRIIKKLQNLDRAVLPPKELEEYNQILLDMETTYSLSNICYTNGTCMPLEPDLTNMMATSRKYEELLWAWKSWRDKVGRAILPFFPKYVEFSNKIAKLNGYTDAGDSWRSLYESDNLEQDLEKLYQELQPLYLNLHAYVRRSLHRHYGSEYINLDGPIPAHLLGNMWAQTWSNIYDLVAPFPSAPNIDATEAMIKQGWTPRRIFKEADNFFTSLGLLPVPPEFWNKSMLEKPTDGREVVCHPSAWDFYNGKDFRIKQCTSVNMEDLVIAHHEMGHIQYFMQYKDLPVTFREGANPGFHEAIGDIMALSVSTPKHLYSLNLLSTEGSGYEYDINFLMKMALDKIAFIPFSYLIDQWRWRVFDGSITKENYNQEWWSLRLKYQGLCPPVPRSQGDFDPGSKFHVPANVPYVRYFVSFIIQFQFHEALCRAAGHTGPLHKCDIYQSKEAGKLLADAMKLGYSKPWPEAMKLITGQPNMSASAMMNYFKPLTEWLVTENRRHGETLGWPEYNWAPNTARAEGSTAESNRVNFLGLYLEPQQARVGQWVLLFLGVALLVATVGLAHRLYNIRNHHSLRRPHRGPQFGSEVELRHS

[6] = biological target: Angiotensin-converting enzyme (Homo sapiens, UniProt P12821); test: Inhibition of human plasma ACE
[7] = Plasma protein binding in mouse; assay type: ADME, cell-free; settings: read-out: PPB (converted)
Dipeptidyl peptidase 8 = Dipeptidyl peptidase 8 (Homo sapiens, UniProt Q6V1X1); test: Inhibition of DPP8 (unknown origin)
Neprilysin = Neprilysin (Homo sapiens, UniProt P08473); test: Inhibition of NEP (unknown origin)
Aminopeptidase N = Aminopeptidase N (Homo sapiens, UniProt P15144); test: Inhibition of APN (unknown origin)
Cytochrome P450 1A2 = biological target: T2, Cytochrome P450 1A2 (Homo sapiens, UniProt P05177); test: Inhibition of CYP1A2 (unknown origin) up to 10 uM; assay type: ADME
T2 sequence (P05177 whole entry): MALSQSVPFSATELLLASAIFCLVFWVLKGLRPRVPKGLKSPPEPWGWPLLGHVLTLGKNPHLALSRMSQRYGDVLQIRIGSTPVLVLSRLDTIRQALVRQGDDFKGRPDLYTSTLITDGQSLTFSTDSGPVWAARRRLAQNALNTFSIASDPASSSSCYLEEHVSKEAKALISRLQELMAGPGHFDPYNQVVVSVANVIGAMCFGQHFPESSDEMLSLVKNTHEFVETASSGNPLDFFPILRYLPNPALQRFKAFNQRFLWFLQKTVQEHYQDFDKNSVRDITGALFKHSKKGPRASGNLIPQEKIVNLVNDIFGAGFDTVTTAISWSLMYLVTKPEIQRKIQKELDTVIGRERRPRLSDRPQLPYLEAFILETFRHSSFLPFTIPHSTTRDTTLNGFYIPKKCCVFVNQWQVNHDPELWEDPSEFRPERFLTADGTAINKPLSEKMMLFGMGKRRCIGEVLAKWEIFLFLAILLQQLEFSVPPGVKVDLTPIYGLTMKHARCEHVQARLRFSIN

Cytochrome P450 2C9 = Cytochrome P450 2C9 (Homo sapiens, UniProt P11712); test: Inhibition of CYP2C9 (unknown origin) up to 10 uM; assay type: ADME
Cytochrome P450 2D6 = Cytochrome P450 2D6 (Homo sapiens, UniProt P10635); test: Inhibition of CYP2D6 (unknown origin) up to 10 uM; assay type: ADME
Liver [8] = test: Stability in mouse liver microsomes; assay type: ADME, microsome
Liver [9] = test: Stability in rat liver microsomes; assay type: ADME, microsome
[10] = Tmax in Wistar rat plasma at 30 mg/kg, po; assay type: ADME, organism-based
[11] = Cmax in Wistar rat plasma at 30 mg/kg, po; assay type: ADME, organism-based; design: dose 30 mg/kg, route oral
[12] = AUC (0 to 24 hrs) in Wistar rat plasma at 30 mg/kg, po; assay type: ADME, organism-based; design: time < 24 hr, dose 30 mg/kg, route oral
[13] = AUC (0 to infinity) in Wistar rat plasma at 30 mg/kg, po; assay type: ADME, organism-based; design: dose 30 mg/kg, time infinity, route oral

Chain of Dipeptidyl peptidase 4 (Rattus norvegicus, UniProt P14740) (P14740 whole entry): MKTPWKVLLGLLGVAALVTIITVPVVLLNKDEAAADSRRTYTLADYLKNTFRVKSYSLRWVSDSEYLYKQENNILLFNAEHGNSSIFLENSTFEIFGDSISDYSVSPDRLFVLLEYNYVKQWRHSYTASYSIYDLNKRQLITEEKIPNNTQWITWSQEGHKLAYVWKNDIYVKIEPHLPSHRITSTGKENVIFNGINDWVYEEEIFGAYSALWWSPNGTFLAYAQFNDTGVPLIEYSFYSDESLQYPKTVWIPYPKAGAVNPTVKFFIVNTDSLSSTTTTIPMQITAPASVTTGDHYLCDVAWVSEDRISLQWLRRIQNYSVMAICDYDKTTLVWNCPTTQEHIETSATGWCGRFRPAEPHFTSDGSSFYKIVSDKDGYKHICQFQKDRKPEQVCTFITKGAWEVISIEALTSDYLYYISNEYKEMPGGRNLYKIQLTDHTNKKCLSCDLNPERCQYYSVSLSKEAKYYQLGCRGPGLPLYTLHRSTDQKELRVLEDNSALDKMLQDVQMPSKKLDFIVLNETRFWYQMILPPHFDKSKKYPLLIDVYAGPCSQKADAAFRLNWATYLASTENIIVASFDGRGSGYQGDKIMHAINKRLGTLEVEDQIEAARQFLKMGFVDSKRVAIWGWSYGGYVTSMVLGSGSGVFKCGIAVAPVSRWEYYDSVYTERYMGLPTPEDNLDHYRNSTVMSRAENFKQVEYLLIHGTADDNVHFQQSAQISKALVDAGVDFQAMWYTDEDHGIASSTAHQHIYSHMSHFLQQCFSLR
Chain of Dipeptidyl peptidase 8 (Q6V1X1 whole entry): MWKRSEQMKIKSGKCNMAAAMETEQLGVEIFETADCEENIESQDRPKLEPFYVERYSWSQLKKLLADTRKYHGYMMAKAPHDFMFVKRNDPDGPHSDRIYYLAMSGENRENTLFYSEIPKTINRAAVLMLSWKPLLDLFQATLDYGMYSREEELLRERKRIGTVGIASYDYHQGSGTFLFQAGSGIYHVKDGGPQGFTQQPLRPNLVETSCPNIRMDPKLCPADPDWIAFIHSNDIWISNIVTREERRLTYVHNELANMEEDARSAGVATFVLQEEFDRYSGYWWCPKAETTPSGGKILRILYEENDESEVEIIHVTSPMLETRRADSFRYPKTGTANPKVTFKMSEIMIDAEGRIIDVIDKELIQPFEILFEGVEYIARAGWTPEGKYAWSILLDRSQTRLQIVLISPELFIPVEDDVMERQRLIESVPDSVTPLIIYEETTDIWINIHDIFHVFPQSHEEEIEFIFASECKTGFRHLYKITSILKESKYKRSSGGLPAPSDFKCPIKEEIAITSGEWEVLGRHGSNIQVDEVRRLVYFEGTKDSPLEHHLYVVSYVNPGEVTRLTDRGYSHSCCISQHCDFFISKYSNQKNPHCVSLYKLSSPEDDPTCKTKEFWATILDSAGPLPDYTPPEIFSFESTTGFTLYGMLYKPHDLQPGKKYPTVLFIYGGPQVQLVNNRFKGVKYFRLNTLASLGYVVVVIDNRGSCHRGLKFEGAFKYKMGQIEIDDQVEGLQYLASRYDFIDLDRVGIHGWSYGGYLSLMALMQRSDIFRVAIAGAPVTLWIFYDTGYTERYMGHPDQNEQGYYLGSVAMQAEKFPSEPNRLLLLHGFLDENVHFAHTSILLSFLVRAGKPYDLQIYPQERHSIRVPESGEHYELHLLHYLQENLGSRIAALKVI
Chain of Dipeptidyl peptidase 4 (Homo sapiens, UniProt P27487) (P27487 whole entry): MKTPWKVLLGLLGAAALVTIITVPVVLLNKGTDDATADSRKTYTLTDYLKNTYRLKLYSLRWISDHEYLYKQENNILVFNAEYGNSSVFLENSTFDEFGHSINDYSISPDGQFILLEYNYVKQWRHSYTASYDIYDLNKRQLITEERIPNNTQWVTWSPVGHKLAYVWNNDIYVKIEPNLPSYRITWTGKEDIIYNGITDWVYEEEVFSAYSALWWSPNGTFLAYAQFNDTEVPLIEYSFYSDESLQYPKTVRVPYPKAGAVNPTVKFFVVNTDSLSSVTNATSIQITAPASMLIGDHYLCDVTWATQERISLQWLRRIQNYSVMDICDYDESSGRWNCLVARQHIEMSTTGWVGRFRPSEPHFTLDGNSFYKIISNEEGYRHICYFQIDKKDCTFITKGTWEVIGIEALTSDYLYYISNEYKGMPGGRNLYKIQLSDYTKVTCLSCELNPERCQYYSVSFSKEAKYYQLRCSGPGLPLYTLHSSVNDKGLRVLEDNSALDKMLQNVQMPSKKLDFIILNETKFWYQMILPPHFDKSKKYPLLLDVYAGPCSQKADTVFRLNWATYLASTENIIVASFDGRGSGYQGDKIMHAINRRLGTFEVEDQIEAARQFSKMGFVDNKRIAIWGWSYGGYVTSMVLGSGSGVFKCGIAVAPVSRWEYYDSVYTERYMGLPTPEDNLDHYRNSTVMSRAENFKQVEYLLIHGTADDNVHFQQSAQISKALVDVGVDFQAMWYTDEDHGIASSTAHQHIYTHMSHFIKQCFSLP
Chain of Angiotensin-converting enzyme (Homo sapiens, UniProt P12821) (P12821 whole entry): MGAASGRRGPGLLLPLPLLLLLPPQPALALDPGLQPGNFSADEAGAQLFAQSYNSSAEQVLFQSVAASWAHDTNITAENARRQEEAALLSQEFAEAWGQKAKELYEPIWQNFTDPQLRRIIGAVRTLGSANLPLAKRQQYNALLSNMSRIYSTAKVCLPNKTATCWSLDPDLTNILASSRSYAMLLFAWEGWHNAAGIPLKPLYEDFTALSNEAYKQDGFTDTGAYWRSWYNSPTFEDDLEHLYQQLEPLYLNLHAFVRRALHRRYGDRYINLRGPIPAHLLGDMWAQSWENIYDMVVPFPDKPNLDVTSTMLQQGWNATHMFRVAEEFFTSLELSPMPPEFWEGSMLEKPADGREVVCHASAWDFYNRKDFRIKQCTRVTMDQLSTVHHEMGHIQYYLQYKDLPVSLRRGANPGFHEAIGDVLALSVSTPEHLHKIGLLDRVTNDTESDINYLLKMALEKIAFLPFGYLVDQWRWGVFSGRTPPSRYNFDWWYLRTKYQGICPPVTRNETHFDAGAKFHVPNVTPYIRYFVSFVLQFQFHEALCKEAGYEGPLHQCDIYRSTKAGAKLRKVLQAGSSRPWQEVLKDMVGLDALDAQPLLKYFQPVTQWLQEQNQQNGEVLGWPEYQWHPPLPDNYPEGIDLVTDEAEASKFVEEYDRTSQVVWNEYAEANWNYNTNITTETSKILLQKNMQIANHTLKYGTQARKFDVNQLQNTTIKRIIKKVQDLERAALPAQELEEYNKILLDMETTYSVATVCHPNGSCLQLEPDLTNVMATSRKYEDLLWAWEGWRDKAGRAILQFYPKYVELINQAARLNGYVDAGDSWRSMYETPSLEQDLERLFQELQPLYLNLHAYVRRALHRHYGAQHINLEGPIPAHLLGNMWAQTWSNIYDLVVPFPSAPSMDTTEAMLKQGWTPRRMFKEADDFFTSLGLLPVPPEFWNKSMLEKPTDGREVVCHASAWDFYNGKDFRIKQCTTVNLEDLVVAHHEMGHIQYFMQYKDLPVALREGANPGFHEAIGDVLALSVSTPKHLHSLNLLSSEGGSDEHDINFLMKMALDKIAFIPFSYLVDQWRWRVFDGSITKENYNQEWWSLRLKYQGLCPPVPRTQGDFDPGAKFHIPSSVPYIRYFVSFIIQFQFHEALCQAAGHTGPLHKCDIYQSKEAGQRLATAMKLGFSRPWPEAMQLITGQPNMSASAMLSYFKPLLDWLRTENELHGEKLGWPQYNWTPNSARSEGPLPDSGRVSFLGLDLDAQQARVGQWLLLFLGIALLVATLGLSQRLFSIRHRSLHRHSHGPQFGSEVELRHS
Chain of Neprilysin (P08473 whole entry): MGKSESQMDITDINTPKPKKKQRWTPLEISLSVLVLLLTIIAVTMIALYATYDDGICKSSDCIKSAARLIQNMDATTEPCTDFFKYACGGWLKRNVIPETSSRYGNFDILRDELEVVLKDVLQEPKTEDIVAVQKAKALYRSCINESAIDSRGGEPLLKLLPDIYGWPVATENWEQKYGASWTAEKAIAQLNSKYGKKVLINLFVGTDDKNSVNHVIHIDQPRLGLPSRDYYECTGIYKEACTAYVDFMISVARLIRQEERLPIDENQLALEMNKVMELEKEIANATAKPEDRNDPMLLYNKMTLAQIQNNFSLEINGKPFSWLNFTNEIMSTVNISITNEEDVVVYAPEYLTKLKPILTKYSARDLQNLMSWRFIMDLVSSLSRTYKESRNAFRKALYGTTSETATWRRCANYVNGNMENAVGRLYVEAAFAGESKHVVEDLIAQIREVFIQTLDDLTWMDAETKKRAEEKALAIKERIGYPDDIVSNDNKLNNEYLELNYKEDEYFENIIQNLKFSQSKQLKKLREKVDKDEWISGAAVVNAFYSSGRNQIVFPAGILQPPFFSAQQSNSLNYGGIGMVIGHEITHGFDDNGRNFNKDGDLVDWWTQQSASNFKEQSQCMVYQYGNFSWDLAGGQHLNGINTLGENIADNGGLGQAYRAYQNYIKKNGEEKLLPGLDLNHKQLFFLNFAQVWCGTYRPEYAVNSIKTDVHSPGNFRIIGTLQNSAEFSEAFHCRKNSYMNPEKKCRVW
Chain of Cytochrome P450 2C9 (P11712 whole entry): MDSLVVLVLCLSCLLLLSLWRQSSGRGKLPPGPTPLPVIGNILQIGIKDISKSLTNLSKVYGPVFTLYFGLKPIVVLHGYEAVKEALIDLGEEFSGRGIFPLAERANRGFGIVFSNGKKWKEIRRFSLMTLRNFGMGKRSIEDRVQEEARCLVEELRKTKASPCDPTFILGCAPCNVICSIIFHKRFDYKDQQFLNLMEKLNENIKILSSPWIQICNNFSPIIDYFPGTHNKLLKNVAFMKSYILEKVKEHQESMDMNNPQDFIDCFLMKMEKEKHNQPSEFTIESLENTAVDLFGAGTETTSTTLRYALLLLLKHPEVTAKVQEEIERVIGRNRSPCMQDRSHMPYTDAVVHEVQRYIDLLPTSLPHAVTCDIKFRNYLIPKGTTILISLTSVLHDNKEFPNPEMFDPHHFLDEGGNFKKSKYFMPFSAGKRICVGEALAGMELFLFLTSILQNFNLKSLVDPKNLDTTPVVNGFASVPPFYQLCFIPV

| Stability (Liver [1]) | IC50 (Dipeptidyl peptidase 4 [2]) [nM] | IC50 (Dipeptidyl peptidase 4 [3]) [nM] | IC50 (Dipeptidyl peptidase 4 [4]) [nM] | IC50 [5] [nM] | IC50 [6] [nM] | fraction unbound [7] | IC50 (Dipeptidyl peptidase 8) [nM] | IC50 (Neprilysin) [nM] | IC50 (Aminopeptidase N) [nM] | inhibition (INH) (Cytochrome P450 1A2) | inhibition (INH) (Cytochrome P450 2C9) | inhibition (INH) (Cytochrome P450 2D6) | Stability (Liver [8]) | Stability (Liver [9]) | Tmax [10] [h] | Cmax [11] [ng/mL] | AUC(0-t) at 24 h [12] [ng·h/mL] | AUC(0-inf) [13] [ng·h/mL] | Compound |
| --- | --- | --- | --- | --- | --- | --- | --- | --- | --- | --- | --- | --- | --- | --- | --- | --- | --- | --- | --- |
| Stable | 155 | 217 | 255 | 58 | 158 | 0.51 | 27000 | > 100000 | > 100000 | Not Active | Not Active | Not Active | Stable | Stable | 1.5 | 260 | 610 | 1170 | C[C@H](N[C@@H](CCc1ccccc1)C(=O)O)C(=O)N1C[C@@H](NC(=O)C[C@H](N)Cc2cc(F)c(F)cc2F)C[C@H]1C(=O)O |
| Stable | 1230 | 2470 | 67 | 2020 | 51 | 0.015 | 57000 | > 100000 | > 100000 | Not Active | Not Active | Not Active | Stable | Stable | 3.3 | 2500 | 21500 | 23500 | CCC[C@H](N[C@@H](CCc1ccccc1)C(=O)O)C(=O)N1C[C@@H](NC(=O)C[C@H](N)Cc2cc(F)c(F)cc2F)C[C@H]1C(=O)O |
| Stable | 319 | 488 | 57 | 100 | 8.6 to 8.9 | 0.129 | 69000 | > 100000 | > 100000 | Not Active | Not Active | Not Active | Stable | Stable | 1.67 | 550 | 2360 | 2860 | CC[C@H](N[C@@H](CCc1ccccc1)C(=O)O)C(=O)N1C[C@@H](NC(=O)C[C@H](N)Cc2cc(F)c(F)cc2F)C[C@H]1C(=O)O |
| Stable | 4170 | 7170 | 102 | 2210 | 279 | 0.014 | > 100000 | > 100000 | > 100000 | Not Active | Not Active | Not Active | Stable | Stable | 2 | 1330 | 13900 | 16800 | CCCC[C@H](N[C@@H](CCc1ccccc1)C(=O)O)C(=O)N1C[C@@H](NC(=O)C[C@H](N)Cc2cc(F)c(F)cc2F)C[C@H]1C(=O)O |
